{"source": "patent EP0414533A1", "about": "“Use of iodopropargyl esters of alpha-amino acid derivatives as antimicrobial agents” (ROHM AND HAAS COMPANY, priority 1989, dated 1991)", "key": {"Pythium ultimum (PYU)": {"test_system": "Pythium ultimum (PYU)", "test": "In-vitro plant fungicide test", "format": "cell-based", "details": "Globisporangium ultimum; 25 ppm; Table IVa; read-out: % Control at 25 ppm PYU"}, "[1]": {"test_system": "Cochliobolus sativus (HEL)", "test": "In-vitro plant fungicide test", "format": "cell-based", "details": "Bipolaris sorokiniana, 25 ppm; Table IVa; *=Phytotoxic; read-out: % Control at 25 ppm HEL"}, "Botrytis cinerea (BOC)": {"test_system": "Botrytis cinerea (BOC)", "test": "In-vitro plant fungicide test", "format": "cell-based", "details": "Botrytis cinerea, 25 ppm; Table IVa; *=Phytotoxic; read-out: % Control at 25 ppm BOC"}, "THREE FUNGI": {"test_system": "THREE FUNGI", "test": "MIC test against three fungi in Mycophile Broth, pH 5.0, read after 8 days (Table VII)", "format": "cell-based", "details": "192 h, serial dilutions from 50 ppm, read after 8 days of incubation"}, "8 FUNGI": {"test_system": "8 FUNGI", "test": "Microbicides secondary test against 8 fungi on Mycophile Agar at pH 5.0 (Table VI)", "format": "cell-based", "design": "key: 1= no growth; 0= growth of the indicated fungi at dose indicated in ppm", "details": "for ANIG growth: Aspergillus niger; for APUL growth: Aureobasidium pullulans; for CGLO growth: Chaetomium globosum; for CRES growth: Cladosporium resinae; for GTRA growth: Gloeophyllum trabeum; for PFUN growth: Penicillium funiculosum; for RRUB growth: Rhodotorula rubra; for SSER growth: Sacharomyces cerevisiae", "source_text": "The results of the minimum inhibitory concentration (MIC) tests of compounds of this invention are shown in Tables IIIa IIIb, IIIc, V, VI, VII, and VIII against the microorganisms shown in Table IX."}, "[2]": {"test_system": "Pseudomonas fluorescens (PSFL)", "test": "Minimum inhibitory concentration (MIC), broth two-fold serial dilution test", "details": "Pseudomonas fluorescens, IIIB, read-out: MIC (G-) PSFL, trypticase soy broth (complex media); Table IIIb", "description": "(§1) When the test is ready to be done, each vessel in the dilution series, except the first vessel, contains an equal volume of compound free broth. The first vessel contains twice the volume of broth with the starting concentration of test compound. One half of the broth from the first vessel is transferred to the second vessel. After being mixed, one half the resulting volume is removed from the second vessel and transferred to the third vessel. The entire cycle is repeated sufficiently to give a series of concentrations amounting to 500, 250, 125, 63, 31, 16, 8, and 4 ppm (or 100, 50, 25, 12.5, 6.2, 3.1, 1.6, and 0.8), respectively.\n(§2) Each vessel is then inoculated with a cell suspension of the appropriate test organism. Bacteria are grown in broth, fungi on agar slants for a time and at a temperature appropriate to the species being tested, and algae are a mixture of green algae and blue-green bacteria grown in a nutrient media. At the end of the growth period, in the case of bacteria, the broth is vortexed to disperse the cells.\n(§3) The vessels are then incubated at the appropriate temperature. After the incubation, the vessels are examined for growth/no growth."}, "Septoria nodorum (SEP)": {"test_system": "Septoria nodorum (SEP)", "test": "In-vitro plant fungicide test", "format": "cell-based", "details": "Parastagonospora nodorum, 25 ppm; Table IVa; read-out: % Control at 25 ppm SEP"}, "Rhizoctonia solani (RHI)": {"test_system": "Rhizoctonia solani (RHI)", "test": "In-vitro plant fungicide test", "format": "cell-based", "details": "Rhizoctonia solani; 25 ppm; Table IVa; read-out: % Control at 25 ppm RHI"}, "Escherichia coli (ECOL)": {"test_system": "Escherichia coli (ECOL)", "test": "Minimum inhibitory concentration (MIC), broth two-fold serial dilution test", "details": "Escherichia coli, IIIB, read-out: MIC (G-) ECOL, trypticase soy broth (complex media); Table IIIb", "description": "as §1, §2, §3"}, "[3]": {"test_system": "Xanthomonas campestris (XAN)", "test": "In-vitro plant fungicide test", "format": "cell-based", "details": "Xanthomonas campestris; 25 ppm; Table IVa; read-out: % Control at 25 ppm XAN"}}, "note": "Like-named read-outs stand apart in the source and are kept apart here."}
{"smiles": "O=C(CNC(=O)c1ccccc1)OCC#CI", "note": "[Compound 29, N-benzoylglycine iodopropargyl ester]", "values": [{"measurement": "inhibition of growth at 25 ppm", "setting": "Pythium ultimum (PYU)", "result": 100, "unit": "%"}, {"measurement": "inhibition of growth at 25 ppm", "setting": "[1]", "result": 100, "unit": "%"}, {"measurement": "inhibition of growth at 25 ppm", "setting": "Botrytis cinerea (BOC)", "result": 100, "unit": "%"}, {"measurement": "MIC", "setting": "THREE FUNGI; Aspergillus niger, read-out: MIC ANIG", "result": 1.6, "unit": "µg/mL"}, {"measurement": "MIC", "setting": "THREE FUNGI; Aureobasidium pullulans, read-out: MIC APUL", "result": 12.5, "unit": "µg/mL"}, {"measurement": "MIC", "setting": "THREE FUNGI; Gloeophyllum trabeum, read-out: MIC GTRA", "result": 3.2, "unit": "µg/mL"}, {"measurement": "ANIG growth", "setting": "8 FUNGI; 0.2 PPM", "result": 0}, {"measurement": "ANIG growth", "setting": "8 FUNGI; 1.0 PPM", "result": 1}, {"measurement": "ANIG growth", "setting": "8 FUNGI; 2.5 PPM", "result": 1}, {"measurement": "ANIG growth", "setting": "8 FUNGI; 25 PPM", "result": 1}, {"measurement": "APUL growth", "setting": "8 FUNGI; 0.2 PPM", "result": 0}, {"measurement": "APUL growth", "setting": "8 FUNGI; 1.0 PPM", "result": 0}, {"measurement": "APUL growth", "setting": "8 FUNGI; 2.5 PPM", "result": 0}, {"measurement": "APUL growth", "setting": "8 FUNGI; 25 PPM", "result": 1}, {"measurement": "CGLO growth", "setting": "8 FUNGI; 0.2 PPM", "result": 0}, {"measurement": "CGLO growth", "setting": "8 FUNGI; 1.0 PPM", "result": 0}, {"measurement": "CGLO growth", "setting": "8 FUNGI; 2.5 PPM", "result": 0}, {"measurement": "CGLO growth", "setting": "8 FUNGI; 25 PPM", "result": 1}, {"measurement": "CRES growth", "setting": "8 FUNGI; 0.2 PPM", "result": 0}, {"measurement": "CRES growth", "setting": "8 FUNGI; 1.0 PPM", "result": 0}, {"measurement": "CRES growth", "setting": "8 FUNGI; 2.5 PPM", "result": 0}, {"measurement": "CRES growth", "setting": "8 FUNGI; 25 PPM", "result": 1}, {"measurement": "GTRA growth", "setting": "8 FUNGI; 0.2 PPM", "result": 0}, {"measurement": "GTRA growth", "setting": "8 FUNGI; 1.0 PPM", "result": 1}, {"measurement": "GTRA growth", "setting": "8 FUNGI; 2.5 PPM", "result": 1}, {"measurement": "GTRA growth", "setting": "8 FUNGI; 25 PPM", "result": 1}, {"measurement": "PFUN growth", "setting": "8 FUNGI; 0.2 PPM", "result": 0}, {"measurement": "PFUN growth", "setting": "8 FUNGI; 1.0 PPM", "result": 0}, {"measurement": "PFUN growth", "setting": "8 FUNGI; 2.5 PPM", "result": 1}, {"measurement": "PFUN growth", "setting": "8 FUNGI; 25 PPM", "result": 1}, {"measurement": "RRUB growth", "setting": "8 FUNGI; 0.2 PPM", "result": 0}, {"measurement": "RRUB growth", "setting": "8 FUNGI; 1.0 PPM", "result": 0}, {"measurement": "RRUB growth", "setting": "8 FUNGI; 2.5 PPM", "result": 0}, {"measurement": "RRUB growth", "setting": "8 FUNGI; 25 PPM", "result": 1}, {"measurement": "SSER growth", "setting": "8 FUNGI; 0.2 PPM", "result": 0}, {"measurement": "SSER growth", "setting": "8 FUNGI; 1.0 PPM", "result": 0}, {"measurement": "SSER growth", "setting": "8 FUNGI; 2.5 PPM", "result": 0}, {"measurement": "SSER growth", "setting": "8 FUNGI; 25 PPM", "result": 1}, {"measurement": "MIC", "setting": "[2]", "result": 32, "unit": "µg/mL"}, {"measurement": "inhibition of growth at 25 ppm", "setting": "Septoria nodorum (SEP)", "result": 100, "unit": "%"}, {"measurement": "inhibition of growth at 25 ppm", "setting": "Rhizoctonia solani (RHI)", "result": 100, "unit": "%"}, {"measurement": "MIC", "setting": "Escherichia coli (ECOL)", "result": 125, "unit": "µg/mL"}, {"measurement": "inhibition of growth at 25 ppm", "setting": "[3]", "result": 0, "unit": "%"}]}
